Data published in patent US20240148821A1, “PHARMACEUTICAL USE OF CYCLIC PEPTIDE COMPOUND” (CHUGAI SEIYAKU KABUSHIKI KAISHA, priority 2021, published 2024).
Numbered stars: 1 amine (or outer) side, 2 acyl side, 3 side chain; on linkers, the order of the positions; unused ones are H or OH. Bridge positions count the residues as written; N and C are the ends. Square brackets hold non-standard residues; d marks the D form. Peptide text beside a SMILES is read from it. * marks the point of attachment. hPhe(3-Cl-4-CF3) = N[C@@H](CCc1ccc(C(F)(F)F)c(Cl)c1)C(=O)O; hPhe(3-F,4-CF3) = N[C@@H](CCc1ccc(C(F)(F)F)c(F)c1)C(=O)O; X20 = Cc1cncc(C[C@@H](C(=O)[*:2])N(C)[*:1])c1; NMePhe(4-Me) = CN[C@@H](Cc1ccc(C)cc1)C(=O)O; NMeGly(cPent) = CN[C@H](C(=O)O)C1CCCC1; Phe(3-I) = N[C@@H](Cc1cccc(I)c1)C(=O)O; Pro(4,4-F2) = O=C(O)[C@@H]1CC(F)(F)CN1; dβ3hPip = O=C(C[C@H]1CCCCN1[*:1])[*:2]; NMe3Pal = CN[C@@H](Cc1cccnc1)C(=O)O; NMeCha = CN[C@@H](CC1CCCCC1)C(=O)O; NMehLeu = CN[C@@H](CCC(C)C)C(=O)O; NMeChg = CN[C@H](C(=O)O)C1CCCCC1; NMeI = CC[C@H](C)[C@H](NC)C(=O)O; NMeD = CN[C@@H](CC(=O)O)C(=O)O; NMeL = CN[C@@H](CC(C)C)C(=O)O; d(β3hA) = C[C@@H](N)CC(=O)O; Azetidin(1-yl) = C1CN(*)C1; NMeA = CN[C@@H](C)C(=O)O; NMeAib = CNC(C)(C)C(=O)O; Nle = CCCC[C@H](N)C(=O)O; Piperidide = C1CCN(*)CC1; dNMeA = CN[C@H](C)C(=O)O; Ac5c = NC1(C(=O)O)CCCC1; Aze = O=C(O)[C@@H]1CCN1; Aib = CC(C)(N)C(=O)O; Sar = CNCC(=O)O

Tests used:
[1] = system: Human pancreatic cancer cell line AsPC-1 (G12D mutation Kras); test: AsPC-1 cell growth inhibition (AsPC-1 CGI); assay type: cell-based; conditions: read-out: AsPC-1 cell growth inhibition, 50% growth inhibitory concentration (IC50 value); 96 hours, CellTiter-Glo, values classified in ranges
Method: Test compounds were serially dilated with dimethyl sulfoxide, and 200 nL was then dispensed to a U-bottom 96-well plate using Labcyte Echo. […] The cell suspension was dispensed to a. plate containing a test compound at 100 μL per well and incubated at 37° C. in a 5% carbon dioxide gas incubator. 96 hours later, 80 μL of CellTiter-Glo (Promega) was added to each well and fluorescence was measured.

[2] = target: protein-protein interaction between Kras and SOS1 (biotin-tagged human Kras loaded with GDP, His-tagged human SOS1) (Homo sapiens (Human), UniProt P01116, G12D); test: Protein-protein interaction inhibition between Kras and SOS1 (KrasG12D-SOS PPI) using AlphaScreen; assay type: biochemical; conditions: AlphaScreen; biotin-tagged human Kras loaded with GDP, His-tagged human SOS1; read-out: KRAS G12D-SOS PPI IC50;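 note: kras produced in E. coli, Ni-coupled donor beads and streptavidin acceptor beads, excitation 680 nm with emission detected at 520–620 nm via singlet oxygen transfer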

SMILES | IC50 [1] [µM] | IC50 [2] [µM]
CC[C@H](C)[C@@H]1NC(=O)[C@H](CC(C)C)N(C)C(=O)C[C@@H](C(=O)N2CCCCC2)N(C)C(=O)[C@H](C2CCCCC2)N(C)C(=O)C2(CCCC2)NC(=O)[C@H](Cc2cncc(C)c2)N(C)C(=O)[C@H](CCc2ccc(C(F)(F)F)c(Cl)c2)NC(=O)CN(C)C(=O)[C@H](CC2CCCCC2)N(C)C(=O)CN(C)C(=O)CN(C)C1=O [Compound 1087] ([NMeL]I[Sar][Sar][NMeCha][Sar][hPhe(3-Cl-4-CF3)][X20][Ac5c][NMeChg][NMeD]-Piperidide; lactam N-11) | > 0.5 | 0.015
CC[C@H](C)[C@@H]1NC(=O)[C@H](CC(C)C)N(C)C(=O)C[C@@H](C(=O)N2CCCCC2)N(C)C(=O)[C@H](CCC(C)C)N(C)C(=O)C2(CCCC2)NC(=O)[C@@H]2CCCN2C(=O)[C@H](CCc2ccc(C(F)(F)F)c(Cl)c2)NC(=O)CN(C)C(=O)[C@H](CC2CCCCC2)N(C)C(=O)[C@@H]2CCN2C(=O)[C@H](C)N(C)C1=O [Compound 1776] ([NMeL]I[NMeA][Aze][NMeCha][Sar][hPhe(3-Cl-4-CF3)]P[Ac5c][NMehLeu][NMeD]-Piperidide; lactam N-11) | > 0.5 | 0.024
CC[C@H](C)[C@@H]1NC(=O)[C@H](CCC(C)C)N(C)C(=O)C[C@@H](C(=O)N(C)C)N(C)C(=O)[C@H]([C@@H](C)CC)N(C)C(=O)C2(CCCC2)NC(=O)[C@@H]2CCCN2C(=O)[C@H](CCc2ccc(C(F)(F)F)c(Cl)c2)NC(=O)CN(C)C(=O)[C@H](Cc2ccc(C)cc2)N(C)C(=O)[C@@H]2CCN2C(=O)[C@H](C)N(C)C1=O [Compound 1042] ([NMehLeu]I[NMeA][Aze][NMePhe(4-Me)][Sar][hPhe(3-Cl-4-CF3)]P[Ac5c][NMeI][NMeD]-NMe2; lactam N-11) | ≤ 0.02 | 0.00072
CC[C@H](C)[C@@H]1NC(=O)[C@H](C)N(C)C(=O)C[C@@H](C)NC(=O)[C@H](C2CCCC2)N(C)C(=O)C2(CCCC2)NC(=O)[C@@H]2CCCN2C(=O)[C@H](CCc2ccc(C(F)(F)F)c(Cl)c2)NC(=O)[C@@H](C)N(C)C(=O)[C@H](Cc2cccnc2)N(C)C(=O)[C@@H]2CCN2C(=O)[C@H](C)N(C)C1=O [Compound 1011] (cyclo([Ac5c][NMeGly(cPent)][d(β3hA)][NMeA]I[NMeA][Aze][NMe3Pal][dNMeA][hPhe(3-Cl-4-CF3)]P)) | > 0.5 | 0.038
CC(C)C[C@H]1C(=O)N[C@@H](C(C)C)C(=O)N(C)CC(=O)N(C)CC(=O)N(C)[C@@H](CC2CCCCC2)C(=O)N(C)CC(=O)N[C@@H](CCc2ccc(C(F)(F)F)c(F)c2)C(=O)N(C)[C@@H](CC(C)C)C(=O)NC(C)(C)C(=O)N(C)[C@@H](CC(C)C)C(=O)N[C@H](C)CC(=O)N1C [Compound 1511] (cyclo([Aib][NMeL][d(β3hA)][NMeL]V[Sar][Sar][NMeCha][Sar][hPhe(3-F,4-CF3)][NMeL])) | > 0.5 | 0.19
CCCC[C@@H]1NC(=O)[C@H](Cc2cccc(I)c2)NC(=O)CN(C)C(=O)[C@H](Cc2ccc(C)cc2)N(C)C(=O)[C@@H]2CCN2C(=O)[C@H](C)N(C)C(=O)[C@H]([C@@H](C)CC)NC(=O)[C@H](CC(C)C)N(C)C(=O)C[C@@H](C(=O)N2CCCCC2)N(C)C(=O)[C@H](CC(C)C)NC(=O)[C@H]2CCCN2C1=O [Compound 822] ([NMeL]I[NMeA][Aze][NMePhe(4-Me)][Sar][Phe(3-I)][Nle][dP]L[NMeD]-Piperidide; lactam N-11) | > 0.5 | 0.15
CC[C@H](C)[C@@H]1NC(=O)[C@H](CC(C)C)N(C)C(=O)C[C@@H](C(=O)N2CCC2)N(C)C(=O)[C@H](C2CCCC2)N(C)C(=O)C2(CCCC2)NC(=O)[C@@H]2CC(F)(F)CN2C(=O)[C@H](CCc2ccc(C(F)(F)F)c(Cl)c2)NC(=O)CN(C)C(=O)[C@H](CC2CCCCC2)N(C)C(=O)[C@@H]2CCN2C(=O)[C@H](C)N(C)C1=O [Compound 1283] ([NMeL]I[NMeA][Aze][NMeCha][Sar][hPhe(3-Cl-4-CF3)][Pro(4,4-F2)][Ac5c][NMeGly(cPent)][NMeD]-{Azetidin(1-yl)}; lactam N-11) | ≤ 0.02 | 0.00063
CC[C@H](C)[C@@H]1NC(=O)[C@H](CC(C)C)N(C)C(=O)C[C@H]2CCCCN2C(=O)[C@H](CC(C)C)NC(=O)C(C)(C)N(C)C(=O)[C@H](CC(C)C)NC(=O)[C@H](CCc2ccc(C(F)(F)F)c(F)c2)NC(=O)CN(C)C(=O)[C@H](CC2CCCCC2)N(C)C(=O)CN(C)C(=O)CN(C)C1=O [Compound 1095] (cyclo(I[Sar][Sar][NMeCha][Sar][hPhe(3-F,4-CF3)]L[NMeAib]L[dβ3hPip][NMeL])) | > 0.5 | 0.046
